Test results: PMC8279484 (Journal of Medicinal Chemistry, 2021)

Tests used:
[1] = target: T1, ALX/FPR2 receptor (Homo sapiens, UniProt P25090); assay: Intracellular calcium flux in FPR2+/Gαq+ stably transfected HEK-293; type: cell-based; settings: ATP 1 μM; Wp 2 nM
T1 construct: host or cells: HEK-293, stably double-transfected FPR2+/Gαq+
T1 sequence (P25090 1-351): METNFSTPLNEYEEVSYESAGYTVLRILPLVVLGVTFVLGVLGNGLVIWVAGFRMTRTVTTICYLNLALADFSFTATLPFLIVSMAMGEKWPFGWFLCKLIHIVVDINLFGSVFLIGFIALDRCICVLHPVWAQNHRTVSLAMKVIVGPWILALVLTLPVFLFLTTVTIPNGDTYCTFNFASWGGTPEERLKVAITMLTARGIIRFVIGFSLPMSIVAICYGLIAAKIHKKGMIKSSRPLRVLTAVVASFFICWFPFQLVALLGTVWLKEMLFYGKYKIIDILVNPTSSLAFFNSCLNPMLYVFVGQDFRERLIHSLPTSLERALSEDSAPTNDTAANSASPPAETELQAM
Protocol: HEK-293-transfected and wt cell lines were cultured in Dulbecco’s modified Eagle’s medium (DMEM Glutamax, 4 mM L-glu and 4.50 g/L glucose—Gibco, Ireland) supplemented with heat-inactivated (30 min at 56C) 10% (v/v) FBS (Invitrogen, U.K.), 50 U penicillin, and 50 μg of streptomycin (Invitrogen, U.K.). As stably double-transfected FPR2^+/Gαq^+ HEK-293 cells were resistant to Geneticin and Hygromycin, these were used as selective antibiotics (500 and 100 μg/mL, respectively) to maintain the stable double transfection with the ALX/FPR2 receptor and the Gαq subunit coupled to it. Immediately prior to calcium measurement, fluorescently labeled cells were treated with 10^–11/–9/–7M LXA41 or sLXms using an injection system coupled to the fluorescence reader.
To explore the mechanism of action through which the sLXm lead compound exerts the effects seen here, its interaction with the ALX/FPR2 receptor was investigated and agonist-induced intracellular calcium transients were measured using an engineered cell line stably overexpressing the ALX/FPR2 receptor and the Gαq subunit coupled to it (Figure S6). Wild-type HEK cells were used as controls, to verify the specificity of the agonism toward ALX/FPR2, as previously reported.[36] Briefly, prior to cell plating, sterile 96-well plates (black-sided with optically clear glass flat bottoms) were PDL-coated overnight. Subsequently, 2 × 10^5 wild-type cells and overexpressed cells/well were cultured for 18 h in DMEM complete media (containing Ca^2+ and Mg^2+) to facilitate adherence prior to labeling with Fluo-4 dye. After 1 h of incubation at 37 °C with Fluo-4, cells were gently washed twice and placed in 100% Hanks’ balanced salt solution (HBSS; 37 °C) before reading the fluorescence (485/535 nm), using a spectrophotometer conjugated with an injection system (Clariostar BMG LABTECH plate reader), allowing addition to the cells of controls ([…], 2 nM Wp, a synthetic ALX/FPR2 agonist) or experimental treatments [10 pM, 1 nM, and 100 nM LXA41 or (R)-6].
During calcium flux measurement, the kinetic steps involved were the following: the baseline fluorescent signal was measured for 20 s, followed by 100 s immediately after agonist injection. Subsequently, 2% Triton-X-100 was added to lyse the cells (monitoring for 20 s the maximal release of calcium ions in the extracellular environment) and, finally, 25 mM tetraacetic acid (EGTA) was added to chelate calcium ions (monitoring for additional 20 s the minimal detection of calcium ions in the extracellular environment) (Figure S7).
(§1) The “coding” of the heat-map indicates the arbitrary criteria to assign points to each single PD component (efficacy = Imax or Emax; potency = IC50 or EC50; slope = HS) to generate a final (aggregate) relative PD score. If a single PD component was greater than the reference level (x > 1), then the single-component relative score was arbitrarily set to +1 (light green) or +2 (dark green). If a single PD component was equal to the reference level (x = 1), then the single-component relative score was arbitrarily set to 0 (gray). If a single PD component was smaller than the reference level (x < 1), then the single-component relative score was arbitrarily set to −1 (light red) or −2 (dark red). If the curve of a single PD component was best fitting to a flat line (x = 0), then the single-component relative score was arbitrarily set to −4 (purple) (Table S1).

[2] = tested on: wild-type HEK-293 cells; assay: Intracellular calcium flux in wild-type HEK-293 (specificity control); type: cell-based, human
Protocol: To explore the mechanism of action through which the sLXm lead compound exerts the effects seen here, its interaction with the ALX/FPR2 receptor was investigated and agonist-induced intracellular calcium transients were measured using an engineered cell line stably overexpressing the ALX/FPR2 receptor and the Gαq subunit coupled to it (Figure S6). Wild-type HEK cells were used as controls, to verify the specificity of the agonism toward ALX/FPR2, as previously reported.[36] Briefly, prior to cell plating, sterile 96-well plates (black-sided with optically clear glass flat bottoms) were PDL-coated overnight. Subsequently, 2 × 10^5 wild-type cells and overexpressed cells/well were cultured for 18 h in DMEM complete media (containing Ca^2+ and Mg^2+) to facilitate adherence prior to labeling with Fluo-4 dye. After 1 h of incubation at 37 °C with Fluo-4, cells were gently washed twice and placed in 100% Hanks’ balanced salt solution (HBSS; 37 °C) before reading the fluorescence (485/535 nm), using a spectrophotometer conjugated with an injection system (Clariostar BMG LABTECH plate reader), allowing addition to the cells of controls (1 mM ATP, a GPCR purinergic agonist, 2 nM Wp, a synthetic ALX/FPR2 agonist) or experimental treatments [10 pM, 1 nM, and 100 nM LXA41 or (R)-6].

[3] = tested on: THP-1 LUCIA monocytes; assay: Extrinsic cytotoxicity: LDH release after LPS challenge; type: cell-based, human; settings: Dex 1 μM
Protocol: (§2) We investigated the potential cytotoxicity of all candidate sLXms by assaying LDH release.[50] The response to LPS was arbitrarily set to 100%, and values were expressed relative to this. As previously reported by others, LPS provokes LDH release.[51] […] Ultimately, untreated cells defined the spontaneous cell release thresholds.
(§3) Lactate dehydrogenase (LDH) was assayed in cell supernatants to investigate possible cytotoxicity of the lead compound. LDH is rapidly released into the culture medium after disruption of the plasma membrane.[67],[69] After 24 h of exposure to sLXms, vehicle, or controls, followed by LPS stimulation, as described above, THP-1-Lucia NF-κB-cell supernatants were collected and LDH was assayed. Cytotoxicity was evaluated relative to vehicle controls. Maximum releasable LDH was determined in cells lysed with 2% Triton-X-100 (Sigma-Aldrich, Ireland). LDH levels were assessed by reading the absorbance at 490 nm (protein) and 690 nm (background noise), using a spectrophotometer (SPECTRAMAX M2, Molecular Devices (U.K.) Limited).

[4] = tested on: IL-6; assay: LPS-induced IL-6 release from THP-1 Lucia monocytes (multiplex electrochemiluminescence); type: cell-based, human; settings: Dex 1 μM; 2 1 pM; LPS 50 ng/mL, 24 h
Protocol: (§4) LXA41 and all of the tested sLXms were dissolved in ethanol and further diluted in a culture medium (final ethanol concentration 0.1%; equivalent concentrations were used as the vehicle control). Prior to in vitro experiments, THP-1-Lucia NF-κB cells were harvested and plated at 1 × 10^5 cells/well on 96-well plates and left to settle in the incubator at 37 °C, 95% humidity, and 5% CO2, in 0.1% FBS-containing media, pretreated for 30 min with increasing doses of LXA41, sLXms (from 10^–12 to 10^–6 M), or appropriate controls, followed by stimulation with 50 ng/mL LPS for 24 h. Untreated (Unt) or vehicle-treated (Veh) cells were used as negative controls; 1 pM (1R)-5, the (1R)-epimer of the benzo-mimetic, was used as a positive control for any aromatic mimetic; and, finally, we compared the observed effects to the conventional glucocorticoid dexamethasone (Dex) treatment, at 1 μM.
(§5) After 24 h of exposure to LXA41, sLXms, or vehicle, followed by LPS stimulation (50 ng/mL), as described above, THP-1-Lucia NF-κB-cell supernatants were collected and cleared by centrifugation. Concentrations of IFN-γ, IL-1β, IL-6, IL-8, IL-10, IL-12p70, and TNF-α in culture supernatants were assessed by electro-chemi-luminescent detection, using a commercially available human 96-well plate “multiplex” (several analytes in the same well) kit for tissue culture samples, according to the manufacturers’ guidelines.
as §1

[5] = tested on: C57BL/6J mice; assay: Murine zymosan-induced peritonitis; type: in vivo, mouse
Protocol: Male C57BL/6J mice of 9 weeks of age were purchased from Charles River (Kent, U.K.) and were housed in a specific pathogen-free facility in individually ventilated and filtered cages under positive pressure. Peritonitis was induced in mice by ip injection of zymosan (purchased from Sigma-Aldrich; 1 mg per mouse in 0.5 mL of phosphate-buffered saline (PBS)).[73] Mice were treated with dexamethasone (1 μg/g) purchased from Sigma-Aldrich 1 h prior to zymosan injection or (R)-6 (2 and 6 ng/g) (200 μL IP) 30 min prior to zymosan injection. Peritoneal cells were collected by lavage 4 h after injection of zymosan. The local Animal Use and Care Committee and The UK Home Office approved the animal experiments in accordance with the derivatives of both The Home Office Guidance on the Operation of Animals (Scientific Procedures) Act 1986 and The Guide for the Care and Use of Laboratory Animals of the National Research Council.
Surface marker expression on peritoneal cells was assessed by flow cytometry with data collection on a FACSCalibur (Becton Dickinson). Data were analyzed with FlowJo analysis software (Treestar Inc.). Cells were stained with AlexaFluor488 conjugated anti-F4/80 (clone BM8; eBioscience); APC conjugated anti-CD11b (clone M1/70; eBioscience) and Pacific blue conjugated anti-Ly6G (clone 1A8; BioLegend) antibodies. Prior to surface staining, peritoneal cells were counted manually (Neubauer chamber) with Turks solution. Using appropriate fluorescence minus one (FMO) controls, quadrants were drawn, and data were plotted on logarithmic-scale density- or dot-plots.

[6] = tested on: IL-8; assay: LPS-induced IL-8 release from THP-1 Lucia monocytes (multiplex electrochemiluminescence); type: cell-based, human; settings: Dex 1 μM; 1 1 nM; (R)-6 concentration not given
Protocol: as §4, §5

[7] = tested on: THP-1 LUCIA monocytes; assay: Intrinsic cytotoxicity: LDH release without LPS; type: cell-based, human; settings: absence of LPS, 24 h; controls Dex 1 μM, 2 1 pM, 5 1 pM
Protocol: as §2, §3

[8] = tested on: IL-1β; assay: LPS-induced IL-1β release from THP-1 Lucia monocytes (multiplex electrochemiluminescence); type: cell-based, human; settings: Dex 1 μM; 2 1 pM; LPS 50 ng/mL, 24 h
Protocol: as §4, §5, §1

[9] = tested on: IFNγ; assay: LPS-induced IFNγ release from THP-1 Lucia monocytes (multiplex electrochemiluminescence); type: cell-based, human; settings: Dex 1 μM; 2 1 pM; LPS 50 ng/mL, 24 h
Protocol: as §4, §5, §1

[10] = tested on: NF-κB; parameters: method as in PMID 30213823; settings: LXA4 1 0.1 nM; 2 1 nM; cited from earlier work

| Molecule | Ca^2+ mobilization by positive controls [1] | Ca^2+ mobilization in wild-type HEK-293 cells [2] | effect on LPS-induced LDH [3] | Imax, IL-6 release, single-point controls [4] [%] | Total no of PMNs ([5]; Dex ip (1 mg/kg in Figure 9) + zymosan 40 mg/kg, n = 5 mice) | relative proportion of PMNs and monocytes/macrophages (flow cytometry) ([5]; peritoneal cells, data not shown) | enhancement of LPS-induced secretion of IL-8 [6] [fold] | intrinsic LDH release versus vehicle / spontaneous cell release [7] | Imax, IL-1β release, single-point controls [8] [%] | attenuation of IFNγ release, single-point controls [9] | effect on TNF-α-stimulated NF-κB activity [10] |
| --- | --- | --- | --- | --- | --- | --- | --- | --- | --- | --- | --- |
| W-peptide [Wp] | Ca^2+ mobilization was observed | without effect |  |  |  |  |  |  |  |  |  |
| C[C@@H]1C[C@H]2[C@@H]3CCC4=CC(=O)C=C[C@]4(C)[C@@]3(F)[C@@H](O)C[C@]2(C)[C@@]1(O)C(=O)CO [Dex, dexamethasone, reference compound] |  |  | did not reduce LPS-induced LDH | 98 ± 1 | 2.4 ± 0.7 × 10^6/mL | not to be altered | 2.5 | did not display any significant cytotoxic effect | 86 ± 6 | 56 ± 2% |  |
| CCCCC[C@@H](O)c1ccccc1/C=C/[C@@H](O)[C@@H](O)CCCC(=O)OC [Compound 2, benzo-LXA4, reference compound] |  |  |  | 42 ± 3 |  |  |  | did not display any significant cytotoxic effect | 59 ± 4 | did not significantly alter | reduced TNF-α-stimulated NF-κB activity |
| Nc1ncnc2c1ncn2[C@@H]1O[C@H](COP(=O)(O)OP(=O)(O)OP(=O)(O)O)[C@@H](O)[C@H]1O [ATP] | Ca^2+ mobilization was observed | stimulated Ca^2+ mobilization |  |  |  |  |  |  |  |  |  |
